Measurements from ChEMBL document CHEMBL1132083, “Switching androgen receptor antagonists to agonists by modifying C-ring substituents on piperidino[3,2-g]quinolinone” (Bioorg Med Chem Lett, 1999).

Experiments:
Androgen receptor [1] = target: T1, Androgen receptor (Homo sapiens, UniProt P10275)
T1 sequence (P10275 whole entry): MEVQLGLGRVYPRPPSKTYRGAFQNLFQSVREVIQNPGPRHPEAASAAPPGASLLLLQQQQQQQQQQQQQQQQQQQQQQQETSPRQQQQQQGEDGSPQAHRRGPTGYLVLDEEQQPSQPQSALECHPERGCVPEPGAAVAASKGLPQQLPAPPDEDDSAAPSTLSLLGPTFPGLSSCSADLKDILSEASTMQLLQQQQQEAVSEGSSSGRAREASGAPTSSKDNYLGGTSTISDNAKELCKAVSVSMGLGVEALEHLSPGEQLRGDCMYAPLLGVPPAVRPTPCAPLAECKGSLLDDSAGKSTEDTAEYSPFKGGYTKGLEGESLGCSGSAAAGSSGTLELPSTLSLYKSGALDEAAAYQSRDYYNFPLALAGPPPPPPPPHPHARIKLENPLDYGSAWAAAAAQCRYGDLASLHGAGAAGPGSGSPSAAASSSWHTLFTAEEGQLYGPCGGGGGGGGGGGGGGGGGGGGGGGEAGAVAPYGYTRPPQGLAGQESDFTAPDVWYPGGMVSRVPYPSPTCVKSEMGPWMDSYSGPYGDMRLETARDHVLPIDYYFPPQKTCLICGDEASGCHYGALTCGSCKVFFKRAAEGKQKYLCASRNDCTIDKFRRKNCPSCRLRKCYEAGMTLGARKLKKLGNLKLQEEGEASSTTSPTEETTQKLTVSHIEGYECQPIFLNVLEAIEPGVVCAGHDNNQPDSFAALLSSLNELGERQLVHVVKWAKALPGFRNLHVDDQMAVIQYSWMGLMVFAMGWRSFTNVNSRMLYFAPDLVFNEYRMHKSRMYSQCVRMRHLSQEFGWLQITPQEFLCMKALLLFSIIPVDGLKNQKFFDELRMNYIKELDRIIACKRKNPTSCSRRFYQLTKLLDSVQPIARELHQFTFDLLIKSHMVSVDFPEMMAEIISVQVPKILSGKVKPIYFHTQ
Description: (§1) Antagonistic activity against human androgen receptor (hAR) expressed in CV-1 cell lines

Androgen receptor [2] = target: T1, Androgen receptor; remark: listed apart in the source
Description: Binding affinity towards human androgen receptor (hAR), using dihydrotestosterone as radioligand for competitive binding assay

Androgen receptor [3] = target: T1, Androgen receptor; conditions: cv-1
Description: (§2) Agonistic activity against human androgen receptor (hAR) expressed in CV-1 cell lines

Androgen receptor [4] = target: T1, Androgen receptor; test: Antagonistic activity against human androgen receptor (hAR) expressed in CV-1 cells; no data; format: functional, cell-based
[5] = target: T2, Androgen receptor (Homo sapiens) (UniProt P10275); test: Antagonistic activity against human androgen receptor (hAR); no data; format: functional
T2 sequence (whole entry): T1 sequence (P10275 whole entry)

Androgen receptor [6] = target: T1, Androgen receptor; remark: listed apart in the source
Description: as §2

Androgen receptor [7] = target: T1, Androgen receptor; conditions: cv-1; remark: listed apart in the source
Description: as §1

Q: `CC[C@H]1Nc2cc3[nH]c(=O)cc(C(F)(F)F)c3cc2CC1(C)C` was tested. Which IC50 (Androgen receptor [1]) did it give?
A: 0.042 µM

Q: What about the Ki (Androgen receptor [2]) of the same compound?
A: 0.05 µM

Q: What about the EC50 (Androgen receptor [3]) of the same compound?
A: < 10 µM

Q: With `CC[C@@H]1C[C@H](CC)c2cc3c(C(F)(F)F)cc(O)nc3cc2N1` as the compound, how does the IC50 (Androgen receptor [4]) read?
A: < 10 µM

Q: What about the Efficacy [5] of the same compound?
A: < 20%

Q: And the EC50 (Androgen receptor [6])?
A: 0.032 µM

Q: And the Ki (Androgen receptor [2])?
A: 0.009 µM

Q: Which results are given for `CC[C@H]1Nc2cc3[nH]c(=O)cc(C(F)(F)F)c3cc2C[C@@H]1C`?
A: IC50 (Androgen receptor [1]): 0.011 µM; EC50 (Androgen receptor [6]): 1.67 µM; Ki (Androgen receptor [2]): 0.012 µM

Q: With `CC[C@H]1C[C@@H](C)Nc2cc3nc(O)cc(C(F)(F)F)c3cc21` as the compound, how does the IC50 (Androgen receptor [4]) read?
A: < 10 µM

Q: And the Efficacy [5]?
A: < 20%

Q: And the EC50 (Androgen receptor [6])?
A: 0.066 µM

Q: What about the Ki (Androgen receptor [2]) of the same compound?
A: 0.023 µM

Q: Which IC50 (Androgen receptor [1]) does the source give for `C[C@@H]1CCc2cc3c(C(F)(F)F)cc(=O)[nH]c3cc2N1` here?
A: 0.019 µM

Q: What about the EC50 (Androgen receptor [6]) of the same compound?
A: 0.021 µM

Q: What about the Ki (Androgen receptor [2]) of the same compound?
A: 0.007 µM

Q: With `C[C@H]1Cc2cc3c(C(F)(F)F)cc(O)nc3cc2N[C@@H]1C` as the compound, how does the IC50 (Androgen receptor [1]) read?
A: 0.033 µM

Q: And the Ki (Androgen receptor [2])?
A: 0.022 µM

Q: What about the EC50 (Androgen receptor [3]) of the same compound?
A: < 10 µM

Q: How did the EC50 (Androgen receptor [6]) turn out when `CC[C@@H]1Cc2cc3c(C(F)(F)F)cc(=O)[nH]c3cc2N[C@@H]1CC` was run?
A: 0.02 µM

Q: What about the Ki (Androgen receptor [2]) of the same compound?
A: 0.029 µM

Q: What about the IC50 (Androgen receptor [7]) of the same compound?
A: < 10 µM

Q: With `CC(C)(O)C(=O)Nc1ccc([N+](=O)[O-])c(C(F)(F)F)c1O` as the compound, how does the IC50 (Androgen receptor [1]) read?
A: 0.015 µM

Q: What about the Ki (Androgen receptor [2]) of the same compound?
A: 0.027 µM

Q: And the EC50 (Androgen receptor [3])?
A: < 10 µM

Q: Which IC50 (Androgen receptor [1]) does the source give for `C[C@@H]1C[C@H](C)c2cc3c(C(F)(F)F)cc(O)nc3cc2N1` here?
A: 0.015 µM

Q: What about the EC50 (Androgen receptor [6]) of the same compound?
A: 0.059 µM

Q: And the Ki (Androgen receptor [2])?
A: 0.006 µM

Q: How did the EC50 (Androgen receptor [6]) turn out when `CC[C@H]1Cc2cc3c(C(F)(F)F)cc(O)nc3cc2N[C@@H]1C` was run?
A: 0.009 µM

Q: And the Ki (Androgen receptor [2])?
A: 0.011 µM

Q: What about the IC50 (Androgen receptor [7]) of the same compound?
A: < 10 µM

Q: `CC(C)[C@@H]1CCc2cc3c(C(F)(F)F)cc(=O)[nH]c3cc2N1` was tested. Which IC50 (Androgen receptor [1]) did it give?
A: 0.025 µM

Q: What about the Ki (Androgen receptor [2]) of the same compound?
A: 0.109 µM

Q: What about the EC50 (Androgen receptor [3]) of the same compound?
A: < 10 µM

Q: With `CCC[C@@H]1CCc2cc3c(C(F)(F)F)cc(O)nc3cc2N1` as the compound, how does the IC50 (Androgen receptor [1]) read?
A: 0.032 µM

Q: What about the Ki (Androgen receptor [2]) of the same compound?
A: 0.024 µM

Q: And the EC50 (Androgen receptor [3])?
A: < 10 µM

Q: For `CC[C@H]1Cc2cc3c(C(F)(F)F)cc(=O)[nH]c3cc2N[C@@H]1CC`, which EC50 (Androgen receptor [6]) is on record?
A: 0.003 µM

Q: What about the Ki (Androgen receptor [2]) of the same compound?
A: 0.016 µM

Q: What about the IC50 (Androgen receptor [7]) of the same compound?
A: < 10 µM

Q: What does the source list for `C[C@H]1Nc2cc3nc(O)cc(C(F)(F)F)c3cc2CC1(C)C`?
A: IC50 (Androgen receptor [1]): 0.024 µM; Ki (Androgen receptor [2]): 0.082 µM; EC50 (Androgen receptor [3]): < 10 µM

Q: Which results are given for `CC[C@@H]1CCc2cc3c(C(F)(F)F)cc(O)nc3cc2N1`?
A: IC50 (Androgen receptor [1]): 0.011 µM; EC50 (Androgen receptor [3]): < 10 µM

Q: `CC[C@H]1Nc2cc3nc(O)cc(C(F)(F)F)c3cc2C[C@H]1C` was tested. Which IC50 (Androgen receptor [1]) did it give?
A: 0.015 µM

Q: And the EC50 (Androgen receptor [6])?
A: 2.47 µM

Q: And the Ki (Androgen receptor [2])?
A: 0.011 µM

Q: Which IC50 (Androgen receptor [1]) does the source give for `C[C@@H]1Cc2cc3c(C(F)(F)F)cc(O)nc3cc2N[C@@H]1C` here?
A: 0.074 µM

Q: And the EC50 (Androgen receptor [6])?
A: 0.034 µM

Q: And the Ki (Androgen receptor [2])?
A: 0.015 µM

Q: How did the IC50 (Androgen receptor [1]) turn out when `CC[C@@H]1C[C@H](C)c2cc3c(C(F)(F)F)cc(O)nc3cc2N1` was run?
A: 0.137 µM

Q: And the EC50 (Androgen receptor [6])?
A: 0.119 µM

Q: What about the Ki (Androgen receptor [2]) of the same compound?
A: 0.021 µM

Q: Which IC50 (Androgen receptor [1]) does the source give for `CC[C@H]1Nc2cc3nc(O)cc(C(F)(F)F)c3cc2CC1(CC)CC` here?
A: 0.048 µM

Q: What about the Ki (Androgen receptor [2]) of the same compound?
A: 0.042 µM

Q: What about the EC50 (Androgen receptor [3]) of the same compound?
A: < 10 µM

Q: For `CC[C@@H]1Cc2cc3c(C(F)(F)F)cc(=O)[nH]c3cc2N[C@@H]1C`, which EC50 (Androgen receptor [6]) is on record?
A: 0.01 µM

Q: What about the Ki (Androgen receptor [2]) of the same compound?
A: 0.015 µM

Q: What about the IC50 (Androgen receptor [7]) of the same compound?
A: < 10 µM
